{"source": "paper PMC8406801", "about": "“Naringenin Inhibits Platelet Activation and Arterial Thrombosis Through Inhibition of Phosphoinositide 3-Kinase and Cyclic Nucleotide Signaling” (Frontiers in Pharmacology, 2021)", "type_in_all_cases": "cell-based, rat", "key": {"[1]": {"test_system": "GSK3β Ser9 phosphorylation", "test": "Immunoblotting of phospho-GSK3β (Ser9) in ADP-stimulated washed platelets", "settings": "for p-GSK3β / t-GSK3β / p-GSK3β / t-GSK3β (Fold to ADP only): ADP 10 μmol/L, single replicates; for p-GSK3β / t-GSK3β: raw data", "method": "(§1) For in vitro platelet aggregation, aliquots of washed platelets were preincubated with vehicle or various concentrations of naringenin for 5 min and stimulated with ADP (10 μmol/L) under stirring at 37°C for 5 min. For ex vivo platelet aggregation, PRP was incubated at 37°C for 5 min and stimulated with ADP (5 μmol/L) under stirring at 37 °C. The platelet aggregation was terminated by adding ethylenediaminetetraacetic acid (EDTA; 10 mM). Total protein was prepared using RIPA lysis buffer and protein content was determined by bicinchoninic acid (BCA) protein assay kit. Equal amounts of platelet proteins (30 μg) were separated on 10% SDS polyacrylamide gel electrophoresis (SDS-PAGE) and then transferred to poly vinylidene difluoride (PVDF) membranes and subjected to western blot. Blots were blocked with TBS-Tween 20 containing 5% BSA and probed with primary antibodies diluted in blocking solution at 4°C overnight followed by incubation with the corresponding HRP secondary antibodies. The protein bands were visualized using enhanced chemiluminescence (ECL).\n(§2) FIGURE 4 Naringenin inhibits PI3K-mediated signaling in ADP-induced platelets. Washed rat platelets were preincubated without or with naringenin at 37°C for 5 min, and then stimulated with ADP (10 μmol/L) under stirring for 5 min. Platelet proteins were then extracted and analyzed by immunoblotting using PI3Kp110β antibody (A) and phospho-specific antibodies such as Akt^Ser473 (B), Akt^Thr308 (C), ERK1/2^Thr202/Tyr204 (D) and GSK3β^Ser9 (E). Total level of GAPDH was measured on each sample as a loading control. The blots shown are representative of three separate experiments. The relative protein expression levels were quantified by ImageJ 1.47v software. The level of relative protein expression obtained with vehicle control (0 μM) was taken as 1. R represents the level of relative protein expression in resting platelets. Data are expressed as means ± SD (n = 3). *p < 0.05, **p < 0.01, ***p < 0.001 compared with the vehicle control group."}, "[2]": {"test_system": "PI3Kp110β", "test": "Immunoblotting of PI3Kp110β in ADP-stimulated washed platelets", "settings": "ADP 10 μmol/L, single replicates; for PI3Kp110β / GAPDH: raw data", "method": "as §1, §2"}, "[3]": {"test_system": "PRP (platelet-rich plasma)", "test": "ADP (10 μmol/L)-induced aggregation of PRP in vitro", "settings": "for Aggregation (%): raw data", "method": "Washed rat platelets were prepared as described previously ([Gao et al., 2011]) with a minor modification. Briefly, rat blood was drawn from the abdominal aorta into the siliconized vacutainers containing 1:9 (v/v) 3.8% sodium citrate, supplemented with 100 ng/ml prostaglandin E1 (PGE1) and centrifuged at 300 × g for 6 min at room temperature. Platelet-rich plasma (PRP) was obtained, and after the addition of 100 ng/ml PGE1, platelets were pelleted at 900 × g for 10 min. Platelets were washed once in Tyrode’s buffer (12 mM NaHCO3, 138 mM NaCl, 5.5 mM glucose, 2.9 mM KCl, 2 mM MgCl2, 0.42 mM NaH2PO4, 10 mM HEPES, pH 7.4) containing 100 ng/ml PGE1, and finally resuspended in Tyrode’s buffer containing 0.02 U/mL apyrase to a final concentration of 4×10^8 cells/mL. Washed platelets were preincubated with vehicle (0.4% dimethyl sulfoxide) or various concentrations of naringenin in the presence of 2 mM CaCl2 for 5 min at 37°C, and then further stimulated by ADP (10 μM), thrombin (0.2 U/mL) or collagen (2 μg/ml). The maximum platelet aggregation rate was detected within 5 min with continuous stirring.\nPlatelet aggregation was induced by ADP using washed platelets and PRP. Washed platelets were preincubated with vehicle (containing 0.4% DMSO) or different doses (100, 200, 400, and 800 μM) of naringenin or naringin for 5 min before activation with ADP (10 μM) for 5 min. […] For example, naringenin, at doses of 100 and 800 μM, decreased ADP-induced platelet aggregation to 54.5 ± 6.2% and 6.3 ± 1.7%, respectively (n = 6; p < 0.001, control group platelet aggregation was taken as 100%) (Figure 1F). […] Because dietary flavonoids have been reported to bind plasma proteins and cause the lowering of inhibitory potency in PRP ([Wright et al., 2013]), the ability of naringenin and naringin on platelet function in PRP was investigated to compare their effects with washed platelets.\nFIGURE 1 Effects of naringenin and naringin on platelet aggregation. Chemical structure of naringin (A) and naringenin (B). The effects of naringin (C) or naringenin (D) on PRP were measured following stimulation with 10 μmol/L ADP. Rat washed platelet aggregation performed with or without different concentrations of naringin (E) or naringenin (F) was recorded after stimulation with 10 μmol/L ADP. Similarly, Washed platelet aggregation performed with vehicle or various concentrations of naringenin was recorded after stimulation with 0.2 U/mL thrombin (G) or 2 μg/ml collagen (H). WP represents washed platelets. Data are expressed as means ± SD (n = 6), the level of aggregation obtained at 5 min with vehicle-treated samples (0 μM) was taken as 100%. *p < 0.05, **p < 0.01, ***p < 0.001 compared with the vehicle control group."}}, "note": "Where “and” joins values, the source holds several entries; their conditions need not be identical. Equal entries are not always repeated.", "data": [{"molecule": "O=C1C[C@@H](c2ccc(O)cc2)Oc2cc(O)cc(O)c21", "note": "[Naringenin]", "values": [{"measurement": "p-GSK3β / t-GSK3β", "setting": "[1]; 100 μM", "value": "0.3609 and 0.3982 and 0.3384"}, {"measurement": "p-GSK3β / t-GSK3β (Fold to ADP only)", "setting": "[1]; 100 μM", "value": "0.5893 Fold to ADP only and 0.6502 Fold to ADP only and 0.5525 Fold to ADP only"}, {"measurement": "p-GSK3β / t-GSK3β", "setting": "[1]; 200 μM", "value": "0.4301 and 0.3431 and 0.4790"}, {"measurement": "p-GSK3β / t-GSK3β (Fold to ADP only)", "setting": "[1]; 200 μM", "value": "0.7022 Fold to ADP only and 0.5603 Fold to ADP only and 0.7821 Fold to ADP only"}, {"measurement": "p-GSK3β / t-GSK3β", "setting": "[1]; 400 μM", "value": "0.3379 and 0.5076 and 0.5137"}, {"measurement": "p-GSK3β / t-GSK3β (Fold to ADP only)", "setting": "[1]; 400 μM", "value": "0.5517 Fold to ADP only and 0.8288 Fold to ADP only and 0.8388 Fold to ADP only"}, {"measurement": "p-GSK3β / t-GSK3β", "setting": "[1]; 800 μM", "value": "0.4062 and 0.4495 and 0.5157"}, {"measurement": "p-GSK3β / t-GSK3β (Fold to ADP only)", "setting": "[1]; 800 μM", "value": "0.6632 Fold to ADP only and 0.7339 Fold to ADP only and 0.8420 Fold to ADP only"}, {"measurement": "influence on GSK3β phosphorylation", "setting": "[1]; ADP-induced platelets", "value": "no influence"}, {"measurement": "PI3Kp110β / GAPDH", "setting": "[2]; 100 μM", "value": "0.2747 and 0.1851 and 0.4122"}, {"measurement": "PI3Kp110β / GAPDH (Fold to ADP only)", "setting": "[2]; 100 μM", "value": "0.5384 Fold to ADP only and 0.3629 Fold to ADP only and 0.8080 Fold to ADP only"}, {"measurement": "PI3Kp110β / GAPDH", "setting": "[2]; 200 μM", "value": "0.2677 and 0.1570 and 0.3210"}, {"measurement": "PI3Kp110β / GAPDH (Fold to ADP only)", "setting": "[2]; 200 μM", "value": "0.5248 Fold to ADP only and 0.3077 Fold to ADP only and 0.6292 Fold to ADP only"}, {"measurement": "PI3Kp110β / GAPDH", "setting": "[2]; 400 μM", "value": "0.1072 and 0.1459 and 0.2766"}, {"measurement": "PI3Kp110β / GAPDH (Fold to ADP only)", "setting": "[2]; 400 μM", "value": "0.2102 Fold to ADP only and 0.2861 Fold to ADP only and 0.5422 Fold to ADP only"}, {"measurement": "PI3Kp110β / GAPDH", "setting": "[2]; 800 μM", "value": "0.0408 and 0.0426 and 0.1130"}, {"measurement": "PI3Kp110β / GAPDH (Fold to ADP only)", "setting": "[2]; 800 μM", "value": "0.0801 Fold to ADP only and 0.0835 Fold to ADP only and 0.2214 Fold to ADP only"}, {"measurement": "decrease of aggregation in PRP", "setting": "[3]; ADP-induced, 100 μM", "value": 18, "unit": "%"}, {"measurement": "Aggregation (%)", "setting": "[3]; PRP, ADP 10 μmol/L, compound 100 μM, single replicates", "value": "44.9% and 44.8% and 49.7% and 47.9% and 48.3%"}, {"measurement": "Aggregation % of control", "setting": "[3]; PRP, ADP 10 μmol/L, compound 100 μM, single replicates, 100 µM", "value": "78.3 % of control and 86.8 % of control and 83.7 % of control and 79.5 % of control and 84.4 % of control"}, {"measurement": "Aggregation (%)", "setting": "[3]; PRP, ADP 10 μmol/L, compound 200 μM, single replicates", "value": "42.5% and 44.3% and 48.9% and 47.2% and 39.7%"}, {"measurement": "Aggregation % of control", "setting": "[3]; PRP, ADP 10 μmol/L, compound 200 μM, single replicates, 200 µM", "value": "77.4 % of control and 85.4 % of control and 82.4 % of control and 69.3 % of control and 74.1 % of control"}, {"measurement": "Aggregation (%)", "setting": "[3]; PRP, ADP 10 μmol/L, compound 400 μM, single replicates", "value": "39.7% and 31.6% and 37.9% and 34.1% and 44.8%"}, {"measurement": "Aggregation % of control", "setting": "[3]; PRP, ADP 10 μmol/L, compound 400 μM, single replicates, 400 µM", "value": "66.9 % of control and 69.3 % of control and 55.2 % of control and 66.2 % of control and 59.6 % of control and 78.3 % of control"}, {"measurement": "Aggregation (%)", "setting": "[3]; PRP, ADP 10 μmol/L, compound 800 μM, single replicates", "value": "30.9% and 33.6% and 36.0% and 28.9% and 28.6% and 38.4%"}, {"measurement": "Aggregation % of control", "setting": "[3]; PRP, ADP 10 μmol/L, compound 800 μM, single replicates, 800 µM", "value": "58.7 % of control and 62.9 % of control and 50.5 % of control and 50.0 % of control and 67.1 % of control"}, {"measurement": "activity at 100 µM", "setting": "[3]; Rattus norvegicus, PRP, ADP 10 μmol/L, compound 100 μM, single replicates, read-out: Aggregation % of control", "value": 78.4, "unit": "%"}, {"measurement": "activity at 200 µM", "setting": "[3]; Rattus norvegicus, PRP, ADP 10 μmol/L, compound 200 μM, single replicates, read-out: Aggregation % of control", "value": 74.2, "unit": "%"}, {"measurement": "activity at 800 µM", "setting": "[3]; Rattus norvegicus, PRP, ADP 10 μmol/L, compound 800 μM, single replicates, read-out: Aggregation % of control", "value": 54, "unit": "%"}]}]}
